We go through 14 compounds from patent US5292901A, “Benzodioxole derivatives” (Eisai Co., Ltd., priority 1987, dated 1994).

For test [1], the system named is liver injury induced by D-galactosamine. In words: Experimental Example 2b: inhibition of liver injury in rats (group I-b), method given as that of Experimental Example 1b. It is filed as in vivo, male Fischer (F344) rats. Conditions: Rattus norvegicus, 48 h; Table 2b; compound 100 mg/kg oral in 0.5% methylcellulose; read-out: Inhibition ratio (%) GPT. The method, then: The test was conducted in the same manner as shown in Experimental Example 1b except that the test compound was orally administered to the rats in a dose of 100 mg/kg in 0.5% methylcellulose solution.

For test [2] the test system is unchanged. In words: Experimental Example 1b: effect on liver injury induced by D-galactosamine in rats (group I-b). Conditions: Rattus norvegicus, po, 48 h, Table 1b, D-galactosamine 400 mg/kg, compound 100 mg/kg in 0.5% methylcellulose. Type of test: in vivo, male Fischer (F344) rats.
A short description of test [3]: Study of plants used as folk medicines for liver trouble remedies. Conditions: in words.
Test [4] has as its system liver injury induced by D-galactosamine. In words: Experimental Example 1f: effect on liver injury induced by D-galactosamine in rats (group I-f). Type of test: in vivo, male Fischer (F344) rats. The conditions noted are these: Rattus norvegicus, po, 48 h, Table 1f, D-galactosamine 400 mg/kg, compound 100 mg/kg in 0.5% methylcellulose. The method, then: 300 mg/kg of D-galactosamine was administered to male Fischer (F344) rats weighing around 180 g by subcutaneous injection to induce liver injury. Each compound was dissolved in distilled water was given by oral administration in a dose of 50 mg/kg one hour after the injection of D-galactosamine.
The D-galactosamine was used in the form of a solution having a concentration of 200 mg/ml, obtained by dissolving D-galactosamine in a physiological saline solution to obtain a dilute D-galactosamine solution and adjusting the pH of the dilute solution to 7.0 with 10N aqueous potassium hydroxide.
Blood was collected from the rat's tail vein 48 h after the injection of D-galactosamine. The blood coagulation time was determined by the hepaplastin test (HPT) and GPT activity in the blood plasma was determined by an enzymatic method.
The test was conducted in the same way as shown in Experimental Example 1a except that 400 mg/kg of D-galactosamine was administered in its physiological saline solution and each test compound was used in an amount of 100 mg/kg in 0.5% methylcellulose liquid.

The mark [5] stands for this setting: read-out: Inhibition ratio (%) GPT.
[6] abbreviates: read-out: Inhibition ratio (%) HPT.

SMILES strings stand for the structures.

Take `O=C(O)CCCSCCc1ccc2c(c1)OCO2` [Compound 10]: the inhibition in vivo at 100 mg/kg came out at 43% in test [1], 89% in test [2] (setting [5]) and 99% in test [2] (setting [6]).

For the compound `CCOC(=O)CSCCc1ccc2c(c1)OCO2` [Compound 25], the inhibition in vivo at 100 mg/kg in test [1] amounted to 21%; in test [2] (setting [5]) it was 34%; in test [2] (setting [6]), 61%.

On to `O=C(O)CCSCCc1ccc2c(c1)OCO2` [Compound 9], for which the values for the inhibition in vivo at 100 mg/kg in test [1], in test [2] (setting [5]) and in test [2] (setting [6]) were 98%, 100% and 99%, respectively.

For `O=C(O)CCCCSCCc1ccc2c(c1)OCO2` [Compound 11], the inhibition in vivo at 100 mg/kg in test [1] amounted to 90%; in test [2] (setting [5]), 96%; in test [2] (setting [6]), 98%.

`OCCSSSCc1ccccc1` [2-[(phenylmethyl)trithio]ethanol]: the “effect as liver trouble remedy” value in test [3] was “effective as liver trouble remedies”.

In the case of `C[S+]([O-])CCc1ccc2c(c1)OCO2` (centres unmarked) [Compound 26], the inhibition in vivo at 100 mg/kg in test [1] came out at 97%; in test [2] (setting [5]), 100%; in test [2] (setting [6]), 100%.

As to `O=C(O)CSCCc1ccc2c(c1)OCO2` [Compound 8], in test [1], the inhibition in vivo at 100 mg/kg turned out to be 53%.

Turning to `OC1OCC(Cc2ccc3c(c2)OCO3)C1Cc1ccc2c(c1)OCO2` (centres unmarked) [cubebin], in test [3], the “effect as liver trouble remedy” value was “effective as liver trouble remedies”.

Take `OCCCSCCc1ccc2c(c1)OCO2` [Compound 4]: the figures for the inhibition in vivo at 100 mg/kg in test [1], in test [2] (setting [5]) and in test [2] (setting [6]) were 93%, 98% and 98%, respectively.

As for `CS(=O)(=O)CCc1ccc2c(c1)OCO2` [Compound 28], the inhibition in vivo at 100 mg/kg in test [1] was found to be 97%; in test [2] (setting [5]) it was 95%; in test [2] (setting [6]) it was 98%.

For the compound `NC(=O)CSCCc1ccc2c(c1)OCO2` [Compound 16], the inhibition in vivo at 100 mg/kg in test [1] amounted to 61%; in test [2] (setting [5]) it was 86%; in test [2] (setting [6]), 94%.

On to `NC(=O)CCSCCc1ccc2c(c1)OCO2` [Compound 17], for which the inhibition in vivo at 100 mg/kg in test [1] is 98%; in test [2] (setting [5]), 97%; in test [2] (setting [6]), 99%.

`CC(CC(=O)O)SCCc1ccc2c(c1)OCO2` (centres unmarked) [Compound 13]: the figures for the inhibition in vivo at 100 mg/kg in test [1], in test [2] (setting [5]) and in test [2] (setting [6]) were 86%, 99% and 99%, respectively.

`CCCC(SCC(=O)NCC(=O)O)c1ccc2c(c1)OCO2` (centres unmarked) [Compound 17]: the inhibition in vivo at 100 mg/kg in test [4] (setting [5]) amounted to 91%; in test [4] (setting [6]) it was 70%.
